Data from patent US7863315B2, “2-indolinone derivatives as selective histone deacetylase inhibitors” (Shenzhen Chipscreen Biosciences, Ltd., priority 2008, dated 2011).

Experiments:
Type in all cases: cell-based
[1] = molecular target: T1, HDAC6 (α-tubulin acetylation) (Homo sapiens, UniProt Q9UBN7); assay: ELISA assay of acetylation of α-tubulin in HeLa cells; settings: M-HeLa, 24 hours
T1 construct: endogenous in cells; host or cells: HeLa
T1 sequence (Q9UBN7 1-1215): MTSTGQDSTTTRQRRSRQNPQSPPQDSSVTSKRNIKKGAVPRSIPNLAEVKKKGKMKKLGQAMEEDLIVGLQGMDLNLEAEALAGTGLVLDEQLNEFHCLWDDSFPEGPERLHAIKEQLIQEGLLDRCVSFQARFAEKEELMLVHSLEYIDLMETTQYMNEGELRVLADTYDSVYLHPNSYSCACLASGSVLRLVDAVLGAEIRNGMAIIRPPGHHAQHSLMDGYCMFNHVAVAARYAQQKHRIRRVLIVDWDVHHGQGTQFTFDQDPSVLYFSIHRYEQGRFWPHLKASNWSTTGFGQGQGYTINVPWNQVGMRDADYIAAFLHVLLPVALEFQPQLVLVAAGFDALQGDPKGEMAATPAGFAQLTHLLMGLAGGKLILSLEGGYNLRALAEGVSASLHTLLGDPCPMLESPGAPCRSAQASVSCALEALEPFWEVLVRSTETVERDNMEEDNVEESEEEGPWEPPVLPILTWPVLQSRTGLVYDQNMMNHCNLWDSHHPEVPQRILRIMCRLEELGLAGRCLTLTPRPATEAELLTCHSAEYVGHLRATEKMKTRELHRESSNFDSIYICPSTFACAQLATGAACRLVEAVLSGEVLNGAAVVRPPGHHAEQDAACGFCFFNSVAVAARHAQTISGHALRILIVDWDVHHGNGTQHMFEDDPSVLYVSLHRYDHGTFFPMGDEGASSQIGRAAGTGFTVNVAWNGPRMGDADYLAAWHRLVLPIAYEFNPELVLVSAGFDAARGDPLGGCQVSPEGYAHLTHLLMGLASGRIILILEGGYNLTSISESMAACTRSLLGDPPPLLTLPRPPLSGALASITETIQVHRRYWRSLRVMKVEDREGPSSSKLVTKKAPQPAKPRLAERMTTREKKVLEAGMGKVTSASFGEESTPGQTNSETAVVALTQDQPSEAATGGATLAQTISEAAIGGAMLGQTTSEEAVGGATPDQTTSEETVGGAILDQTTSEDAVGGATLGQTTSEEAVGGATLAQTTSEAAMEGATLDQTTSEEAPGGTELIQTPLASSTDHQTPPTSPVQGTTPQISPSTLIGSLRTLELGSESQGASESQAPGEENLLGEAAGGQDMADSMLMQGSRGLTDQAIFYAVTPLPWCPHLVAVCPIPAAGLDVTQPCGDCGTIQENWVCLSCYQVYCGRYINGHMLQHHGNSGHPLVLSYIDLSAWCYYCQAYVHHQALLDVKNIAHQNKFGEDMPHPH
Description: Measurement of acetylation activity in cells on substrates:
ELISA assay of acetylation of α-tubulin
This assay is used to measure in vivo inhibition of HDAC6 in a cytoblot assay. Materials and Reagent: • 1. 24-well tissue culture • 2. DMEM Medium containing 10% FBS • 3. 96-well white plate • 4. HeLa cell line • 5. M-PER Mammalian Protein Extraction Reagent (Pierce) • 6. Bradford assay reagent • 7. Anti-acetyl-tubulin (Upstate) • 8. HRP-labeled anti-mouse IgG (Upstate) • 9. Coating Buffer: 15 mM Na2CO3, 35 mM NaHCO3 (pH 9.6) • 10. 10×PBS: 0.58 M Na2HPO4, 0.17M NaH2PO4, 0.68M NaCl (pH 7.4) • 11. Wash Buffer:1×PBS containing 0.05% Tween-20 (PBST) • 12. Blocking Buffer:10 mg/ml bocine serum albumin (BSA) in PBS • 13. Antibody Dilution Buffer: 5 mg/ml BSA in PBST • 14. Enhanced chemiluminescence (ECL) (Amersham)
Procedure for performing the assay in 96-well plate: • 1. HeLa cells were seeded at a density of 60000 cells/500 μl/well in 24-well plate and incubated at 37° C. for 24 hours. • 2. Compounds were added and incubated for 24 hours at 37° C. • 3. Culture medium was removed, then washes the cells twice with ice-cold PBS. • 4. Add 100 μl/well of Protein Extraction Reagent and gently shake the mixture for 5 minutes. • 5. Collect the lysate to a 96-well plate respectively. Determine the concentration of protein by Bradford assay. • 6. Coat the wells of a 96-well white plate with 100 μl/well of 2.5 μg whole cell protein in Coating Buffer by incubating overnight at 4° C. • 7. Discard the uncoated proteins and wash the coated wells three times with 200 μl/well of PBST. • 8. Block coated wells by incubating the plate with 200 μl/well of Blocking Buffer for 1 hour at 37° C. • 9. Wells were aspirated and washed three times with 200 μl/well of PBST. • 10. After aspirating, 50 μl/well of Antibody Dilution Buffer containing anti-Ac-tubulin (1:1000) were added to each well and incubated for 2 hour at 37° C. • 11. Wells were aspirated and washed three times with 200 μl/well of PBST. • 12. 50 μl/well of Antibody Dilution Buffer containing HRP-labeled anti-mouse IgG (1:2000) were added to each well and incubated for 2 hour at 37° C. • 13. Wells were aspirated and washed three times with 200 μl/well of PBST. • 14. Wells were washed three times with 200 μl/well of purified water. • 15. Add 50 μl/well of ECL mixture, then read the plates on the plate reader.

[2] = tested on: HDAC4/5 (MEF2 reporter gene); assay: HDAC subtype reporter gene assay, MEF-binding element (MEF2) luciferase in HeLa cells; settings: Homo sapiens, M-HeLa, read-out: % of SAHA Response for HDAC4/5 at 10 μM (MEF2 reporter gene), 24 hours
Description: (§1) Measurement of inhibition of HDAC subtypes activity in cells by reporter gene assay: HDAC subtype selectivity inhibition assay of tested compounds was carried out by several reporter gene assays experiments. Briefly, HeLa cells were seeded in 96-well plates the day before transfection to give a confluence of 50-80%. Cells were transfected with one of reporter gene plasmids containing a promoter sequences or response elements upstream of a luciferase gene construct using FuGene6 transfection reagent according to the manufacturer's instructions (Roche). The promoters or response elements including p21-promoter, gdf11-promoter, MEF-binding element (MEF2), Nur77-promoter were fused upstream to the luciferase gene reporter construct. For normalizing the transfection efficiency, a GFP expression plasmid was cotransfected. Cells were allowed to express protein for 24 hours followed by addition of individual compounds or the vehicle (DMSO). 24 hours later, the cells were harvested and the luciferase assays were performed using the luciferase assay kit according to the manufacturer's instructions (Promega). To normalize the data from the luciferase assays, GFP activity from transfected cells was measured in a microtiter-plate reading fluorimeter capable of excitation at a wavelength at 485 nm and detection of emitted light at 527 nm.

[3] = tested on: HDAC class I (p21 reporter gene); assay: HDAC subtype reporter gene assay, p21-promoter luciferase in HeLa cells; settings: Homo sapiens, M-HeLa, read-out: % of SAHA Response for HDAC class I at 10 μM (p21 reporter gene), 24 hours
Description: as §1

fold induction at 10 µM [1] | Compound | Emax at 10 µM [2] [%] | Emax at 10 µM [3] [%]
2.66 | O=C(CCCCCCCNC(=O)c1cccc(/C=C2\C(=O)Nc3ccc(F)cc32)c1)NO [Example 56, 8-(3-((5-fluoro-2-oxoindolin-3-ylidene)methyl)benzamido)-N-hydroxyoctanamide] | 62 | 65
1.04 | Nc1cc(F)ccc1NC(=O)CCCCCNC(=O)c1ccc(/C=C2\C(=O)Nc3ccc(F)cc32)cc1 [Example 40, 6-(4-((5-fluoro-2-oxoindolin-3-ylidene)methyl)benzamido)-N-(2-amino-4-fluorophenyl)hexanamide] | 56 | 19
1.57 | Nc1cc(F)ccc1NC(=O)CCCCCCCNC(=O)c1ccc(/C=N/N=C2\C(=O)Nc3ccc(F)cc32)cc1 [Example 36, 8-(4-(((5-fluoro-2-oxoindolin-3-ylidene)hydrazono)methyl)benzamido)-N-(2-amino-4-fluorophenyl)octanamide] | 50 | 9
1.74 | Cc1[nH]c(/C=N/N=C2\C(=O)Nc3ccc(F)cc32)c(C)c1C(=O)NCCCCCCCC(=O)Nc1ccccc1N [Example 28, 8-(5-(((5-fluoro-2-oxoindolin-3-ylidene)hydrazono)methyl)-2,4-dimethyl-1H-pyrrole-3-carboxamido)-N-(2-aminophenyl)octanamide] | 32 | 36
1.49 | Nc1cc(F)ccc1NC(=O)CCCCCCCNC(=O)c1cccc(/C=C2\C(=O)Nc3ccc(F)cc32)c1 [Example 55, 8-(3-((5-fluoro-2-oxoindolin-3-ylidene)methyl)benzamido)-N-(2-amino-4-fluorophenyl)octanamide] | 36 | 10
1.03 | Cc1[nH]c(/C=N/N=C2\C(=O)Nc3ccc(F)cc32)c(C)c1C(=O)NCCCCC(=O)Nc1ccccc1N [Example 7, 5-(5-(((5-fluoro-2-oxoindolin-3-ylidene)hydrazono)methyl)-2,4-dimethyl-1H-pyrrole-3-carboxamido)-N-(2-aminophenyl)pentanamide] | 23 | 11
0.93 | Nc1ccccc1NC(=O)CCCCCNC(=O)c1ccc(/C=C2\C(=O)Nc3ccc(F)cc32)cc1 [Example 39, 6-(4-((5-fluoro-2-oxoindolin-3-ylidene)methyl)benzamido)-N-(2-aminophenyl)hexanamide] | 45 | 67
1.76 | Cc1[nH]c(/C=N/N=C2\C(=O)Nc3ccc(F)cc32)c(C)c1C(=O)NCCCCC(=O)Nc1ccc(F)cc1N [Example 8, 5-(5-(((5-fluoro-2-oxoindolin-3-ylidene)hydrazono)methyl)-2,4-dimethyl-1H-pyrrole-3-carboxamido)-N-(2-amino-4-fluorophenyl)pentanamide] | 23 | 7
1.47 | O=C(CCCCCNC(=O)c1ccc(/C=C2\C(=O)Nc3ccc(F)cc32)cc1)NO [Example 41, 6-(4-((5-fluoro-2-oxoindolin-3-ylidene)methyl)benzamido)-N-hydroxyhexanamide] | 21 | 13
